How the values were obtained:
RAF-1 (CRAF) = RAF-1 (CRAF) (Homo sapiens, UniProt P04049); test: RAF kinase inhibition in vitro; type: biochemical
[1] = Brain to plasma ratio of belvarafenib, summary over mice and rats; type: in vivo; settings: for Kp: mouse, rat, brain/plasma
Experimental: (§1) Pharmacokinetic parameters of belvarafenib were calculated from plasma and brain concentration-time data by a non-compartmental method using Phoenix™ WinNonlin 8.1 (Certara, USA). The peak plasma and brain concentration (Cmax) and the corresponding time (Tmax) were directly obtained from the raw data. The area under the plasma curve (AUClast) was obtained by linear-log trapezoidal summation. Other PK parameters such as AUC from dosing time extrapolated to infinity (AUCinf), half-life (t1/2) and mean residence time (MTRlast) were calculated using WinNonlin. The plasma and brain concentrations of belvarafenib were presented as MEAN±S.D. The brain to plasma (B/P) ratio of Belvarafenib was calculated by dividing AUClast in the brain by AUClast in the plasma.
The brain to plasma ratio is expressed in terms of B/P (nonclinical) defined as the percentage of brain exposure relative to plasma. The B/P for belvarafenib was determined experimentally according to the present disclosure and wherein the B/P of 93% is for mice and the B/P of 138% is for rats. The B/P for DAY101 is for mice was taken from Gampa, et al., “Brain Distribution and Active Efflux of Three pan-RAF Inhibitors: Considerations in the Treatment of Melanoma Brain Metastases”, J Pharmacol Exp Ther 368:446-461, March 2019. The B/P for dabrafenib is for mice and was taken from Mittapalli, et al., “Mechanisms Limiting Distribution of the Threonine-Protein Kinase B-RaFV600E Inhibitor Dabrafenib to the Brain: Implications for the Treatment of Melanoma Brain Metastases”, J Pharmacol Exp Ther 344:[…], 2013. The B/P for vemurafenib is for mice and was taken from Mittapalli, et al., “Impact of P-glycoprotein (ABCB1) and breast cancer resistance protein (ABCG2) on the brain distribution of a novel BRAF inhibitor: vemurafenib (PLX4032)”, J Pharmacol Exp Ther 342:33-40, 2013. […]

[2] = Pharmacokinetic profile and brain distribution in mice after oral administration; type: in vivo, mice (ICR); settings: for Kp / Cmax / Tmax / AUC(0-t) / MRT last / half-life / AUC(0-inf): ICR (CD-1), mouse
Experimental: Example 1 evaluated pharmacokinetic profile and brain distribution of belvarafenib in mice after oral administration.
The mouse strain was ICR (CD-1®) supplied by Orient Bio Inc., Korea.
The mice were kept in conventional animal lab cages for 5 days for acclimation before the start of the experiment. The cages were polysulfone 1291H (W425×D266×H185 mm, Techniplast, Italy). Twelve mice were housed in each cage at a temperature of 22±2° C., a relative humidity of 50±20%, a ventilation frequency of 10-15 times/h, a 12 hour light/dark cycle, a light intensity of 150-300 Lux, at least weekly cage replacement. The mice were fed Picolab Rodent diet (5053, Lab Diet, USA) with abundant tap water.
The mice were dosed with belvarafenib dihydrochloride, 99.6% purity, that was stored at room temperature. Dosing was based on active ingredient free base and was corrected for assay and water content. The dosing vehicle was DMSO (5%), cremophore EL (5%), and deionized water (90%). Belvarafenib for dosing (28.08 mg) was dissolved in 14.40 mL of the vehicle for a final concentration of 1.950 mg/mL.
In a single one day dosing regimen, mice were fasted overnight. The body weight of the mice was measured on the day of treatment, from which dosing volumes were set. […] The mice were fed 4 hours post-dose.
Blood (0.3 mL) was collected from the retro-orbital plexus at 0.5, 1, 2, 4, 7, 24, 48, and 72 hours after belvarafenib administration. Plasma was obtained by centrifugation at 12,000 rpm for 2 minutes (Eppendorf) and then harvested and stored at −20° C. (Panasonic, MDF-U334-PK) until analysis.
After bloodletting of mice at each time point, the brain was collected immediately without perfusion. Brain tissue was washed one to two times with saline to remove surface blood. The brains were then trimmed. The collected brain tissue was accurately weighed and mixed with 4-fold saline based on brain weight (a final dilution factor of 5-fold). Each brain sample was then homogenized and placed in a 1.5 mL tube and stored at −20° C. (Panasonic, MDF-U334-PK) until analysis.
Plasma and brain of untreated animals were similarly obtained for use as a blank matrix.
Plasma and brain concentrations of belvarafenib determined by analysis using LC-MS/MS (Waters UPLC H-Class/Xevo TQ (Waters USA)).
as §1

Sequence of RAF-1 (CRAF) (P04049 whole entry): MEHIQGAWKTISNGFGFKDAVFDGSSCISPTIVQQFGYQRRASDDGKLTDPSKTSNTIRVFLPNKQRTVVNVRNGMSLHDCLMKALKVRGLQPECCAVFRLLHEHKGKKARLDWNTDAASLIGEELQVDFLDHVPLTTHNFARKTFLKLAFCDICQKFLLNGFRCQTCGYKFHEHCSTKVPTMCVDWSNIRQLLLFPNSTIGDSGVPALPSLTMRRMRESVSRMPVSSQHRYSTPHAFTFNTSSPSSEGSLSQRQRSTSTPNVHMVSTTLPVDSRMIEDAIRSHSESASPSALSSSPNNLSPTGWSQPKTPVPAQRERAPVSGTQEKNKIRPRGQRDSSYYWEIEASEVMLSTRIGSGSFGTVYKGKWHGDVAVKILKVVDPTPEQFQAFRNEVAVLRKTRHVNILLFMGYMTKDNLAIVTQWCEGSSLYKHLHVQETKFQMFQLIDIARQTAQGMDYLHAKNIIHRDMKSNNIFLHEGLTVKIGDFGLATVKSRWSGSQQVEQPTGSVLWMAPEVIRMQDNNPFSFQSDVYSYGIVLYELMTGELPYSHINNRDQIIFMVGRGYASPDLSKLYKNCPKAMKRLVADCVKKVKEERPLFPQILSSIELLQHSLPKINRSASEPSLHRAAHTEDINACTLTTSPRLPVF

With `Cc1ccc2c(Nc3cccc(Cl)c3F)nccc2c1NC(=O)c1csc2c(N)ncnc12` [Belvarafenib, 4-amino-N-(1-((3-chloro-2-fluorophenyl)amino)-6-methylisoquinolin-5-yl)thieno[3,2-d]pyrimidine-7-carboxamide] the IC50 (RAF-1 (CRAF)) was 2 nM, the “B/P (nonclinical), percentage of brain exposure relative to plasma” value ([1]; 93% mice, 138% rats) was 93-138% and the Kp ([1]; oral, 30 mg/kg) was 0.8 to 1.2. It also gave a Kp ([1]; mice and rats, oral administration) of ~1, a Kp ([2]; oral 30 mg/kg, AUClast brain / AUClast plasma, read-out: B/P ratio) of 0.8 and a Cmax ([2]; oral 30 mg/kg, brain) of 6100 ng/g. For the same compound, the Tmax ([2]; oral 30 mg/kg, brain) was 7 h, the AUC(0-t) ([2]; oral 30 mg/kg, plasma) was 133 µg·h/mL and the Cmax ([2]; oral 30 mg/kg, plasma) was 6210 ng/mL. For the same compound, the Tmax ([2]; oral 30 mg/kg, plasma) was 7 h, the Kp ([2]; male, brain/plasma, oral, 15 mg/kg, read-out: B/P) was 0.93 and the MRT last ([2]; male, in vivo, oral 15 mg/kg, plasma) was 14.3 h. For the same compound, the Kp ([2]; male, oral 15 mg/kg, AUClast brain / AUClast plasma, read-out: B/P ratio) was 0.929, the Cmax ([2]; male, oral 15 mg/kg, brain) was 5240 ng/g and the MRT last ([2]; male, oral 15 mg/kg, brain) was 11.8 h. For the same compound, the Tmax ([2]; male, oral 15 mg/kg, brain) was 7 h, the half-life ([2]; male, oral 15 mg/kg, brain) was 6.3 h and the AUC(0-inf) ([2]; male, oral 15 mg/kg, plasma) was 84.3 µg·h/mL. For the same compound, the AUC(0-t) ([2]; male, oral 15 mg/kg, plasma) was 84.3 µg·h/mL, the Cmax ([2]; male, oral 15 mg/kg, plasma) was 4780 ng/mL and the Tmax ([2]; male, oral 15 mg/kg, plasma) was 4 h. For the same compound, the half-life ([2]; male, oral 15 mg/kg, plasma) was 6.6 h, the AUC(0-inf) ([2]; male, oral 30 mg/kg, plasma) was 133 µg·h/mL and the AUC(0-t) ([2]; male, oral 30 mg/kg, plasma) was 133 µg·h/mL. The AUCinf ([2]; oral 15 mg/kg, brain) was 78297.5 ng·h/g, the AUClast ([2]; oral 15 mg/kg, brain) was 78259.6 ng·h/g and the AUCinf ([2]; oral 30 mg/kg, brain) was 100848.0 ng·h/g. For the same compound, the AUClast ([2]; oral 30 mg/kg, brain) was 100735.8 ng·h/g and the general clinical signs ([2]; single oral 15 mg/kg, pre- and post-dosing periods) was “No clinical signs were observed”.

From US20240173329A1, “BELVARAFENIB FOR USE IN TREATMENT OF BRAIN CANCERS” (Genentech, Inc., priority 2021, published 2024)
